Laboratory results as given in PubChem BioAssay AID179 (DTP/NCI, 2004).
Where “and” joins values, the source holds several entries; their conditions need not be identical. Identical values can stand only once. Calls of active or inactive are those of the source.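 Rule for the calls: active = compounds giving half or more protection of infected cells from virus-caused growth loss, again on retest; inactive = the rest.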 Where a SMILES comes first, the peptide text is derived from it. The star is where a group is joined. Boc = CC(C)(C)OC(=O)*

System: CEM cells HIV-1 protection, formazan growth assay
Test: NCI AIDS Antiviral Assay
Conditions: for IC50: measured here: growth of uninfected CEM cells
How it was run: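 Human CEM cells, uninfected and HIV-1-infected, received five drug concentrations, and growth was read by soluble formazan assay. Compounds giving at least 50% protection were retested; reproducible 100% protection defined confirmed active.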

| Structure (SMILES) | EC50 | IC50 | outcome |
| --- | --- | --- | --- |
| CCCCCC(=O)c1ccc2[nH]c3c(C)cc([N+](=O)[O-])c(C)c3c2c1 | > 4.27 µM | > 4.27 µM |  |
| CN(C)CCN1C(=O)c2ccccc2C1(O)c1ccc(Cl)cc1 (stereo not drawn) | > 200 µM | 44.7 µM |  |
| Clc1ccccc1/C=C\C1(c2ccccc2)OCCO1 | > 200 µM | 10.5 µM |  |
| NC(N)=N/N=C/c1ccc[nH]1 | > 200 µM | > 200 µM |  |
| O=[N+]([O-])c1ccccc1SS(=O)(=O)c1ccc(Cl)cc1 | > 79.4 µM | 44.7 µM |  |
| CN(C)c1ccc(N=Nc2ccc3c(c2)C(=O)c2ccccc2C3=O)cc1 | > 200 µM | > 200 µM |  |
| Cc1ccc(S(=O)(=O)C(CCC(=O)c2ccccc2)(CCC(=O)c2ccccc2)[N+](=O)[O-])cc1 | > 10.7 µM | > 10.7 µM |  |
| COC(=O)OCC1C=CC(n2cnc3c(Cl)ncnc32)CC1 (stereo not drawn) | > 200 µM | 11.5 µM |  |
| O=S(=O)(Cc1ccccc1)SCc1ccccc1 | > 79.4 µM | 6.31 µM |  |
| C=CC(=O)C#Cc1cnc(OC)nc1OC | > 200 µM | 1.1 µM |  |
| Cn1c2ccc([N+](=O)[O-])cc2c(=O)n1Cc1ccccc1F | > 200 µM | 58.9 µM |  |
| CCCCCN1CCN(c2ncccn2)CC1 | > 200 µM | > 200 µM |  |
| CSc1cc(-c2ccccn2)nc(-c2ccccn2)c1.CSc1cc(-c2ccccn2)nc(-c2ccccn2)c1.[Ni+2].[O-][Cl+3]([O-])([O-])[O-] | > 200 µM | > 200 µM |  |
| CCC1C2CC3C4N(C)c5ccccc5C45CC(C2C5O)N3C1O (stereo not drawn) |  |  | inactive |
| CCC1(CC)c2ccccc2C(CC)(CC)[N+]1(C)C | > 200 µM | 85.1 µM |  |
| CCOC(=O)CN=C1Nc2ccccc2C(=O)N2CSCC12 (stereo not drawn) | > 200 µM | 158 µM |  |
| CCSc1n/c(=C\c2ccco2)c2nncn12 | > 100 µM | > 100 µM |  |
| CCNc1c(C(=O)N(CC)CC)c(=O)[nH]c2ncccc12 | > 871 µM | > 871 µM |  |
| O=C(CC1(O)C(=O)Nc2c(Cl)ccc(Cl)c21)c1ccco1 (stereo not drawn) | > 398 µM | 77.6 µM |  |
| CCOC(=O)[C@H]1Nc2ccc(OC)cc2C2c3ccccc3CC21 (stereo partly drawn) | > 57.5 µM | > 57.5 µM |  |
| NS(=O)(=O)c1cc2c(cc1C(F)(F)F)NCNS2(=O)=O | > 759 µM | > 759 µM |  |
| COc1ccc2c(O)c(-c3ccc(OC)c(OC)c3)c(=O)oc2c1 |  |  | inactive |

| Structure (SMILES) | EC50 | IC50 | outcome |
| --- | --- | --- | --- |
| CC(C)=CCC/C(C)=C/CC/C(C)=C/C1CCC(=O)C1(C)C (stereo not drawn) | > 85.1 µM | 41.7 µM |  |
| Clc1cccc2[nH]c(-c3ccncc3)nc12 | > 200 µM | > 200 µM |  |
| Nc1ncnc2c1ncn2C1C(=O)C(CO)C1CO (stereo not drawn) | > 234 µM | > 234 µM |  |
| CO[C@H]1SC[C@H](OC(C)=O)[C@H](OC(C)=O)[C@H]1OC(C)=O | > 200 µM | > 200 µM |  |
| CCOP(=O)(OCC)/C(C#N)=C/c1ccc(-c2cc(C(F)(F)F)cc(C(F)(F)F)c2)o1 | > 200 µM | 11.7 µM |  |
| COP(=O)(Cc1ccc(/C=C/C#N)o1)OC | > 200 µM | > 200 µM |  |
| CC1=C2C(=CC(C)(C)C2O)C(=O)C(C)(O)C12CC2 (stereo not drawn) |  |  | inactive |
| COCC1OC(N2C(=O)NC(=O)[C@@H]3C=C4CCCCC4=C[C@@H]32)C(OC)C1OC (stereo partly drawn) | > 200 µM | 105 µM |  |
| CC(NC(=O)C1CCCN1C(=O)CNC(=O)OC(C)(C)C)C(=O)O (stereo not drawn) (Boc-Gly-Pro-Ala-OH; configuration not given here) | > 200 µM | > 200 µM |  |
| CC(C)C(Nc1c2ccccc2[n+](C)c2ccccc12)C(=O)O (stereo not drawn) |  |  | inactive |
| CC(C)CCCC(C)[C@H]1CC[C@@H]2[C@H]3CC[C@H]4C[C@@H](CCC=C(c5cc(Cl)c(OCc6ccccc6[N+](=O)[O-])c(C(=O)OCc6ccccc6[N+](=O)[O-])c5)c5cc(Cl)c(OCc6ccccc6[N+](=O)[O-])c(C(=O)OCc6ccccc6[N+](=O)[O-])c5)CC[C@]4(C)[C@@H]3CC[C@]12C (stereo partly drawn) | 112 µM | > 200 µM |  |
| Cc1cccc2c3ccc4c(c3n(C)c12)C(=O)C=CC4=O | > 49 µM | 24.5 µM |  |
| CCOC(=O)CN1CCC(C(O)c2cc3ccccc3[nH]2)CC1 (stereo not drawn) | > 537 µM | 525 µM |  |
| CC(C)(C)[Si](C)(C)OCC1OC(n2ccc(=O)[nH]c2=O)C(O[Si](C)(C)C(C)(C)C)C1(CC#N)Sc1ccccc1 (stereo not drawn) | > 200 µM | 10.7 µM |  |
| Nc1ncnc2c1ncn2CC1OC(CO)C(CO)O1 (stereo not drawn) | > 891 µM | > 891 µM |  |
| O=C(CC1C(=O)Nc2ccccc2S1(=O)=O)Nc1ccc(Cl)cc1 (stereo not drawn) | > 5.5 µM | > 5.5 µM |  |
| Cc1ccc(SCC(CF)OCn2cnc3c(N)ncnc32)cc1 (stereo not drawn) | > 200 µM | > 200 µM |  |
| O=C(c1c(O)cc(O)cc1O)c1c(-c2ccc(O)cc2)oc2cc(O)c3c(c12)O[C@H](c1ccc(O)cc1)[C@@H](O)C3 | 16.6 µM | 138 µM |  |
| CCc1cc(=O)n(/C(C)=C/c2ccccc2)n1C | > 200 µM | > 200 µM |  |
| Cc1ccc(S(=O)(=O)c2ccsc2NC(=O)C(F)(F)F)cc1 | > 200 µM | 46.8 µM |  |
| COc1c2c(cc3c1OCO3)[C@]13C=C[C@H](OC)C[C@H]1N(C2)CC3O (stereo partly drawn) | > 126 µM | > 126 µM |  |
| N=c1oc2c(O)c(O)ccc2cc1C(N)=O | > 8.32 µM | > 8.32 µM |  |

| Structure (SMILES) | EC50 | IC50 | outcome |
| --- | --- | --- | --- |
| CC1(C)CS(=O)(=O)CC(C)(C)C(=N/N)/C1=N\N | > 200 µM | > 200 µM |  |
| CN1N=C(c2ccncc2)OC1c1cccc(C(F)(F)F)c1 (stereo not drawn) | > 200 µM | 44.7 µM |  |
| CS(=O)(=O)SCCCS(=O)(=O)O | > 912 µM | > 912 µM |  |
| CC(=S)N=Cc1c(O)[nH]c(=O)[nH]c1=O | > 200 µM | > 200 µM |  |
| CN(C)c1n/c(=N/c2ncn[nH]2)ss1 |  |  | inactive |
| O=C(NNC(=O)c1csc(NC(=S)NC2CCCCC2)n1)c1ccccc1 | > 200 µM | 14.5 µM |  |
| COC(=O)c1cc(=O)n(Cc2ccco2)c(=Nc2ccccc2)s1 | > 100 µM | 13.8 µM |  |
| CC[C@@]1(OC(=O)CCC(=O)O)C(=O)OCc2c1cc1n(c2=O)Cc2cc3ccccc3nc2-1 | > 10 µM | 0.00708 µM |  |
| NC(=S)N/N=C/C(O[C@@H](/C=N/NC(N)=S)CO)n1cnc2c(N)ncnc21 (stereo partly drawn) | > 437 µM | 89.1 µM |  |
| Cc1cc(Cl)ccc1NC(=O)CCCC(=O)C1CCCC1=O (stereo not drawn) |  |  | inactive |
| CC1(C)OC2C(O1)[C@H]1OC(C(Cl)(Cl)Cl)=N[C@H]1C(I)[C@H]2N1C(=O)c2ccccc2C1=O (stereo partly drawn) | > 200 µM | 110 µM |  |
| COc1cc(C(c2ccc3c(c2)OCO3)N2C(=O)CCC2C(=O)O)cc(OC)c1OC (stereo not drawn) | > 200 µM | > 200 µM |  |
| O=[As](O)(O)c1ccc(-c2ccc([As](=O)(O)O)cc2)cc1 | > 200 µM | > 200 µM |  |
| NC(N)=NCCC(O)(P(=O)(O)O)P(=O)(O)O | > 200 µM | > 200 µM |  |
| Cc1c(NC(=O)CSC(=S)N2CCN(Cc3ccccc3)CC2)c(=O)n(-c2ccccc2)n1C |  |  | inactive |
| CC(=O)[O-].[Ni].c1ccc(/C(=N\Nc2ccccn2)c2ccccn2)cc1 |  |  | inactive |
| COc1cccc(N(CN2C(=O)CCC2C(=O)O)C(C)=O)c1 (stereo not drawn) |  |  | inactive |
| CCCC(C(=O)OCCN(CC)CC)(c1ccccc1)c1ccccc1 | > 200 µM | 102 µM and 37.2 µM |  |
| CN(C)C=Nc1c(I)cc(I)c(CCC(=O)O)c1I | > 200 µM | > 200 µM |  |
| CCOC(=O)C[C@H]1C(=O)C[C@@H]2C[C@@H](C)CC(=O)[C@@]21CCC#N |  |  | inactive |
| Cn1cc(NC(=O)c2nc(NC(=O)c3nc(NC(=O)/C=C/C(=O)Nc4cn(C)c(C(=O)Nc5cn(C)c(C(=O)Nc6cn(C)c(C(=O)NCCC(=N)N)n6)n5)n4)cn3C)cn2C)nc1C(=O)NCCC(=N)N | > 50.1 µM | 8.51 µM |  |
| O=C(O)COCC(=O)N(CCOCCN(Cc1ccccc1)C(=O)COCC(=O)O)Cc1ccccc1 | > 200 µM | > 200 µM |  |

| Structure (SMILES) | EC50 | IC50 | outcome |
| --- | --- | --- | --- |
| CCOC1OCN(C)CC1(C)C (stereo not drawn) | > 1450 µM | 79.4 µM |  |
| CCCN(CCCCC(NC(C)=O)C(=O)NCc1ccccc1)C(=O)NCCCl (stereo not drawn) | > 589 µM | > 589 µM |  |
| Brc1ccc(CCNCCN2CCCCC2)cc1 | > 102 µM | 29.5 µM |  |
| CC(=O)NC(CCCOC(C)=O)C(=O)NC(CCCOC(C)=O)C(=O)NC(CCCOC(C)=O)C(=O)NC(Cc1ccc([N+](=O)[O-])cc1)C(=O)NCC(=O)OCc1ccccc1 (stereo not drawn) | > 200 µM | > 200 µM |  |
| OC(C/C=N/Nc1ccccc1)(C(F)(F)Cl)C(F)(F)Cl | > 200 µM | 10 µM |  |
| O=C1c2ccccc2C(=O)C1c1ccc2c(ccc3ccccc32)n1 |  |  | inactive |
| Cc1c(C2(c3cc(C(C)C)c(O)c(CN(CC(=O)O)CC(=O)O)c3C)OS(=O)(=O)c3ccccc32)cc(C(C)C)c(O)c1CN(CC(=O)O)CC(=O)O | > 100 µM | > 100 µM |  |
| CCCC1(N)CC(OC)OC(C)C1O (stereo not drawn) | > 200 µM | > 200 µM |  |
| O=C(/C=C/c1cc(O)c(O)c(O)c1)OCCc1ccccc1 | > 50.1 µM | 15.5 µM |  |
| O=C1[C@@H]2C(c3ccccc3Br)=NO[C@@H]2C(=O)N1c1ccc(Cc2ccc(N3C(=O)[C@H]4C(c5ccccc5Br)=NO[C@H]4C3=O)cc2)cc1 | > 9.55 µM | > 9.55 µM |  |
| CC1(C)CC(=O)C2C(C1)Nc1ccccc1NC2c1ccccc1[N+](=O)[O-] (stereo not drawn) | > 61.7 µM | > 61.7 µM |  |
| Cc1c(C)c(C)c(-n2c(=O)n(C)c(=O)n2C(C)(C)C)c(C)c1C | > 200 µM | 3.31 µM |  |
| N#C/C(=C\c1ccc(O)c(O)c1)C(=O)c1ccc(O)c(O)c1 | > 200 µM | 51.3 µM |  |
| CC(C)(C)C(=O)/C=C/c1cccc(Oc2ccccc2)c1 | > 18.6 µM | > 18.6 µM |  |
| COC(=O)c1ccccc1CC1Cc2ccc3c(c2C1=O)CCCC3 (stereo not drawn) | > 200 µM | > 200 µM |  |
| Nc1ncc(C=O)c(NCC2(CO)CCC2)n1 | > 200 µM | 20.9 µM |  |
| CC(=O)C1(c2ccccc2)CCCN(C)CC1 (stereo not drawn) |  |  | inactive |
| O=C(O)c1ccc(CSc2ccc([N+](=O)[O-])cc2)c([N+](=O)[O-])c1 | > 204 µM | > 100 µM |  |
| O=[N+]([O-])c1cc(-c2nnc(C34CC5CC(CC(C5)C3)C4)o2)cc([N+](=O)[O-])c1 | > 200 µM | > 200 µM |  |
